Results: publication PMC4682813, “The Aminosteroid Derivative RM-133 Shows In Vitro and In Vivo Antitumor Activity in Human Ovarian and Pancreatic Cancers” (PLoS ONE, 2015)

Assays:
[1] = system: OVCAR-3 tumors xenografted in nu/nu nude mice; experiment: OVCAR-3 xenografts using the two selected vehicles; type: in vivo
Description: All in vivo experiments were approved by our Institutional Animal Care and Use Committee (Comités de protection des animaux de l’Université Laval) and carried out according to the guidelines of the Canadian Council on Animal Care. For xenografts, homozygous ♀ nu/nu nude mice (24–42 days old) were purchased from Charles River Inc. (Saint-Constant, QC, Canada) and housed (four to five) in vinyl micro-isolated ventilated cages, equipped with air lids, which were kept in laminar airflow hoods and maintained under pathogen-limiting conditions. During the acclimatization and study period, the animals were housed under a controlled environment at 22 ± 3°C, with 50 ± 20% relative humidity and light set at 12 h/day (light on at 07:15). Rodent food (Rodent diet #T.2018.15, Harlan Teklad, Madison, WI) and water were provided ad libitum. For nu/nu nude mice, food and water were sterilized prior to dispensing to the animals. Standard Balb/c mice were used for pharmacokinetic studies. Animals were anesthetized with isoflurane and killed by cervical dislocation.
Fourty ♀ nu/nu nude mice (22–24 g) were inoculated with 5×10^6 OVCAR-3 cells per flank, in 30% matrigel-containing culture medium (0.1 mL). After 23 days, tumor-bearing mice were randomized in 4 groups of 8 to 9 mice each. […] Two control mouse groups, each representing 12 tumors, received only the vehicles. As mentioned above, the tumor area was measured twice weekly and body weight monitored.

[2] = Plasma concentration of RM-133 with different vehicles; type: in vivo, Balb/c mice; settings: female, Balb/c, mouse, sc, 120 mg/kg, single s.c. 120 mg/kg in 0.1 mL
Description: Eleven different vehicles were investigated by s.c. injection. These vehicles were formulated as follows: vehicle #1 [propylene glycol:EtOH (92:8)]; vehicle #2 [aqueous 0.4% methylcellulose:EtOH (92:8)]; vehicle #3 [castor oil:EtOH:benzyl alcohol:benzyl benzoate (65:10:10:15)]; vehicle #4 [sunflower oil:EtOH (92:8)]; vehicle #5 [sunflower oil:tetrahydrofuran (92:8)]; vehicle #6 [aqueous 25% β-cyclodextrin:EtOH (92:8)]; vehicle #7 [sesame oil:EtOH:benzyl benzoate:benzyl alcohol:Tween 80 (89.8:7.8:1:1:0.5)]; vehicle #8 [soya oil:EtOH (92:8)]; vehicle #9 [RPMI medium:EtOH (92:8)]; vehicle #10 [saline:dimethyl sulfoxide (DMSO):Tween 80 (89.5:10:0.5)]; and vehicle #11 [saline:benzyl alcohol:carboxymethylcellulose:Tween 80 (98.2:0.9:0.5:0.4)]. The eight vehicles producing the best RM-133 solubility (#1–8) were injected s.c. (0.1 mL) without the test compound (RM-133) for tolerance and behavioral evaluation studies, by observing mice at 0.25, 1, 3, 7, 23, 26, 28, 30, and 96 h post-injection. Finally, RM-133 was injected s.c. once at 120 mg/kg/0.1 mL of the best […] tolerated vehicles (#1,2,4–7) into ♀ Balb/c mice (4 per group), and mice were next monitored with blood collection by cardiac puncture after 3 and 12 h. The plasma concentration of RM-133 was then determined by LC-MS/MS as above.

[3] = sunflower oil:EtOH (92:8), 240 mg/kg s.c. every other day
[4] = vehicle #1 propylene glycol (92%) EtOH (8%)
[5] = vehicle #2 aqueous 0.4% methylcellulose (92%) EtOH (8%)
[6] = vehicle #4 sunflower oil (92%) EtOH (8%)
[7] = vehicle #5 sunflower oil (92%) tetrahydrofuran (8%)
[8] = vehicle #6 aqueous 25% β-cyclodextrin (92%) EtOH (8%)

C#C[C@]1(O)CC[C@H]2[C@@H]3CC[C@H]4C[C@H](O)[C@@H](N5CCN(C(=O)[C@@H]6CCCN6C(=O)c6ccc7ccccc7n6)CC5)C[C@]4(C)[C@H]3CC[C@@]21C [RM-133]
day at which tumor growth became significantly different from control ([1]; aqueous 0.4% methylcellulose:EtOH (92:8), 240 mg/kg s.c. twice a day every other day): 15 days | tumor size relative to its initial value ([1]; aqueous 0.4% methylcellulose:EtOH (92:8), 240 mg/kg s.c. twice a day every other day, end of treatment (35 days)): 78% | OVCAR-3 tumor growth inhibition ([1]; aqueous 0.4% methylcellulose:EtOH (92:8), 240 mg/kg/0.2 mL s.c. twice a day every other day, after 28 days): 100% | abnormal behavior or death ([1]; aqueous 0.4% methylcellulose:EtOH (92:8), 35-day treatment period): neither abnormal behavior nor death | reduction of OVCAR-3 xenograft growth ([1]; methylcellulose-based vehicle, s.c. (abstract)): 122% | body weight, treated vs control [1, 3]: No significant difference | day at which the effect on tumor growth became significant [1, 3]: 28 days | toxicity symptoms during the study or at necropsy [1, 3]: no toxicity symptom | OVCAR-3 tumor growth inhibition ([1]; sunflower oil:EtOH (92:8), 240 mg/kg/0.2 mL s.c. once every other day, end of treatment (40 days)): 100% | tumor growth after treatment was stopped ([1]; sunflower oil:EtOH (92:8), treatment stopped at day 40, no significant difference seven days after termination): tumor growth resumed | concentration at 3 h [2, 4]: 314 ± 2 ng/mL | concentration at 12 h [2, 4]: 189 ± 5 ng/mL | concentration at 3 h [2, 5]: 449 ± 5 ng/mL | concentration at 12 h [2, 5]: 171 ± 10 ng/mL | concentration at 3 h [2, 6]: 285 ± 5 ng/mL | concentration at 12 h [2, 6]: 173 ± 6 ng/mL | concentration at 3 h [2, 7]: 642 ± 20 ng/mL | concentration at 12 h [2, 7]: 374 ± 9 ng/mL | concentration at 3 h [2, 8]: 2960 ± 121 ng/mL | concentration at 12 h [2, 8]: 1780 ± 47 ng/mL
